The results in this text go back to patent US8790712B2, “Constitutional function-improving agents” (Cosmo Oil Co., Ltd., priority 2004, dated 2014).

The subject of one data set is CD4-CD8+ cells. Kind of data set: Subset test of lymphocytes from thymus (Example 2). The data set is classed as in vivo, mouse. The settings on record: 10 mg/kg orally once a day for 7 days. The procedure: Mice (35 to 45 weeks old, BALB/cAJc1) preliminary raised for 1 week were injected with 10 mg of ALA hydrochloride per 1 kg mouse body weight once a day for 7 days continuously. ALA hydrochloride was adjusted to a concentration of […] with distilled water and orally administered to the mice. After the test, each mouse was sacrificed and the weight of its thymus and the number of cells were measured. In addition, a subset test of lymphocytes was carried out using the obtained cells. The test was carried out using 5 mice per 1 plot, and their values were shown by average value. […] Also, since the cell of CD4-CD8+ was increased in the ALA-treated plot based on the subset test, it was confirmed that the cytotoxic T cell increases after its future differentiation, so that its immunological function improving ability was shown (Table 3). In addition, photographs of the thymus of untreated plot (un-administered group) and the thymus of ALA-treated plot (ALA-treated group) are shown in FIG. 1.

The subject of data set [1] is glutathione peroxidase (GPx). Put plainly: GPx activity of thymus tissue (Example 3). The data set is classed as in vivo, mouse. The conditions noted are these: 10 mg/kg orally once a day for 7 days. The procedure:
Mice (35 to 45 weeks old, BALB/cAJc1) preliminary raised for 1 week were injected with 10 mg of ALA hydrochloride per 1 kg mouse body weight once a day for 7 days continuously. ALA hydrochloride was adjusted to a concentration of […] with distilled water and orally administered to the mice. After the test, each mouse was sacrificed and the thymus of mouse was collected to measure superoxide dismutase (SOD) activity of its tissue. To the collected thymus, 1.0 ml of 0.25 M sucrose solution was added, and the mixture homogenized and then centrifuged at 10,000 G for 10 minutes, and the resulting supernatant solution was used as the enzyme solution. […] That is, 250 μl of a reaction solution containing 125 μl of 0.1 M potassium phosphate buffer (pH 7.5), 10 μl of the enzyme liquid, 60 μl of 0.1 unit/ml xanthine oxidase, 45 μl of distilled water and 10 μl of 0.3 mM MPEC was dispensed into Luminescencer-PSN (manufactured by Atto Corp.), 50 μl of 0.72 mM hypoxanthine (pH 7.5) was added for emission. […]
In addition, glutathione peroxidase (GPx) activity was also measured. […]
The calculation was carried out by the following formula using the molecular extinction coefficient of NADPH of a=6.3 cm^2/μmole, by calculating the slope of straight line ΔOD (ΔOD=Δcm (quantity of change of y axis)×OD Max/full cm) from the chart. […]

For data set [2], the system named is Mice (35 to 45 weeks old, BALB/cAJc1). Put plainly: Migration distance in cage for 5 minutes (Example 4). The data set is classed as in vivo, mouse. The settings on record: 10 mg/kg orally once a day for 7 days; for Exercise quantity (m): migration distance in 5 minutes. The procedure: Mice (35 to 45 weeks old, BALB/cAJc1) preliminary raised for 1 week were injected with 10 mg of ALA hydrochloride per 1 kg mouse body weight once a day for 7 days continuously. ALA hydrochloride was adjusted to a concentration of 0.5 g/ml with distilled water and orally administered to the mice. After the test, the mouse was put into a cage of 20 cm×20 cm in floor area, and its migration distance was measured for 5 minutes. The test was carried out using 5 male and 5 female mice, a total of 10 animals, for each plot, and the values were shown by average value. It was confirmed that the migration distance is long and the capacity for locomotion is improved in both cases of male and female in the ALA-treated plot.

A further data set has as its system LW·D piglets. Put plainly: Body weight gain of piglets fed ALA hydrochloride for 6 weeks (Example 8). It counts as in vivo, pig. The text has this: LW·D piglets produced on the same day at a swinery were purchased 3 times, each time for 14 animals (each 7 animals of castrates and females), and subjected to preliminary raising for 9 to 12 days to confirm that their healthy state is normal, and then 12 animals (each 6 animals of castrates and females) were selected for each time and used in the test. The test plots were set to a total of 3 plots of a control plot in which a control feed (Table 8) without adding ALA hydrochloride is provided, and 2 test plots in which 10 ppm or 50 ppm of ALA hydrochloride is added to the feed and provided. The piglets to be tested were divided into 3 groups, each group including 4 animals (each 2 animals of castrates and females), in such a manner that distribution of body weight became almost uniform, and 1 groups was allotted to each plot and raised for 6 weeks. The swinery used in the test was an open type swinery in which a pig chamber of 1.8×2.7 m concrete floor was arranged in a row of 14 chambers, and group feeding was carried out using adjoining 3 pig chambers for each block. Rice straws were used as the bedding. A warm-keeping box was arranged in each pig chamber for 3 weeks after start of the test. The feed and drinking water were constantly provided. Body weight gain was calculated by measuring individual body weight at intervals of 1 week from the start of the test.

On to `NCC(=O)CCC(=O)O` [ALA, 5-aminolevulinic acid], for which the figures for the “CD4−CD8+ (%)” value with CD4-CD8+ cells (female mice) and in the data set with CD4-CD8+ cells (male mice) were 3.25% and 5.55%, respectively. Besides, the GPx activity was determined as 0.67 U/ml in data set [1] (female mice) and 0.61 U/ml in data set [1] (male mice). In data set [2] (ALA-treated mice during the test), the “Symptoms such as abnormal stimulation and action” value was “symptoms such as abnormal stimulation and action were not observed”. Moreover, the “Exercise quantity (m)” value in data set [2] (female mice) is listed as 25.5 m; in data set [2] (male mice), 41 m. Also, the “Growth (growth curves, body weight gain)” value with LW·D piglets (10 ppm in feed) and in the data set with LW·D piglets (50 ppm in feed) was “superior growth than the control plot” throughout. Besides, in the data set on LW·D piglets (ALA-treated groups, 10 ppm or 50 ppm in feed), the Health state entry is “abnormal health state was not fund”.
